Data as given in US20230104936A1, “TRPML MODULATORS” (Casma Therapeutics, Inc., priority 2019, published 2023).

Tested on: TFEB
Test: TFEB nuclear translocation assay, HeLa wt cells
Type: cell-based
Settings: 2 hrs compound treatment, Table 1 does not say HeLa wt or TRPML1 KO
Description: For the TFEB nuclear translocation assay, HeLa wt or HeLa TRPML1 KO cells were plated at 2700 cells/well into black-walled, 384-well Cell carrier Ultra tissue culture treated plates in complete media and incubated overnight. The next day, cells are treated for 2 hrs with compounds and incubated at 37° C. Cells were then fixed for 30 minutes at room temperature in 4% final PFA and washed five times with 90 μL PBS. PBS is aspirated from the wells and the cells are blocked with 7.5 μL blocking buffer (1:1 PBS/Odyssey block buffer containing 0.1% triton x-100 and 1% goat serum). After 30-60 minutes of block, 7.5 μL of primary anti-TFEB (rabbit) antibody is added for a final dilution of 1:200 antibody in 15 μL blocking buffer. Plates are incubated overnight at 4° C. The following day, plates are washed again into PBS, 90 μL with 5 washes, all PBS is aspirated from the wells and the cells are incubated for 1 hr in 1:1000 goat-anti rabbit Alexa 488 secondary antibody, also containing 10 μg/mL Hoechst 33342. After the 1 hr room temperature incubation, plates are washed a final time into PBS, sealed with foil and imaged with an automated epifluorescence microscopy (PerkinElmer Operetta CLS). Four different fields were imaged per well using ×20 magnification for DAPI and FITC filter sets. Images were quantified using PerkinElmer Harmony software, briefly: apply flatfield correction (basic/advanced) for input images. Use the Find Nuclei building block with channel set at Hoechst to find the nuclei. Use the Find cytoplasm building block with channel set to Alexa 488 to find the cytoplasm. Use select cell region with Channel set at Alexa 488 and region of interest as Nuclei and define outer border at 0 μm and inner at 45 μm to cover complete nuclei. Use select cell region with Channel set at Alexa 488 and region of interest as ring region and define outer border at −5 μm and inner at 0 μm to define a ring around the nucleus. Use the find calculate intensity parameter to calculate intensity of the nuclear region and the ring region. Define results as Number of nuclei and ratio of A/B where A is Intensity of Nuclei and B is intensity of the ring region.
The compound numbers correspond to the compound numbers above in Tables A or B. Compounds having an activity designated as “++++” provided an AC50 of ≤2.00 μM; compounds having an activity designated as “+++” provided an AC50 of 2.01-8.00 μM; compounds having an activity designated as “++” provided an AC50 of 8.01-9.99 μM; and compounds having an activity designated as “+” provided an AC50 of ≥10.00 μM.

SMILES	AC50 (Homo sapiens, HeLa, 2 h) [µM]	AC50 [µM]
CN(C)S(=O)(=O)c1ccc(S(=O)(=O)Nc2ccccc2N2CCN([C@@H]3C[C@@H]4CC[C@H]3C4)CC2)cc1 (racemic) [Compound A-421, rac-N4-(2-{4-[(1R,2S,4S)-bicyclo[2.2.1]heptan-2-yl]piperazin-1-yl}phenyl)-N1,N1-dimethylbenzene-1,4-disulfonamide]	≤ 2	–
CN(C)S(=O)(=O)c1ccc(S(=O)(=O)Nc2ccccc2N2CCN(C(=O)[C@@H]3C[C@@H]4CC[C@H]3O4)CC2)cc1 (racemic) [Compound A-449, rac-N1,N1-dimethyl-N4-(2-{4-[(1R,2R,4S)-7-oxabicyclo[2.2.1]heptane-2-carbonyl]piperazin-1-yl}phenyl)benzene-1,4-disulfonamide]	2.01 to 8	–
CN(C)S(=O)(=O)c1ccc(S(=O)(=O)Nc2ccccc2N2CCN(C(=O)[C@@H]3C[C@H]3C(C)(F)F)CC2)cc1 (racemic) [Compound A-463, rac-N4-(2-{4-[(1R,2R)-2-(1,1-difluoroethyl)cyclopropanecarbonyl]piperazin-1-yl}phenyl)-N1,N1-dimethylbenzene-1,4-disulfonamide]	2.01 to 8	–
CN(C)S(=O)(=O)c1ccc(S(=O)(=O)Nc2ccccc2N2CCN(C(=O)[C@@]34CCC[C@@H]3C4)CC2)cc1 (racemic) [Compound A-477, rac-N4-(2-{4-[(1R,5R)-bicyclo[3.1.0]hexane-1-carbonyl]piperazin-1-yl}phenyl)-N1,N1-dimethylbenzene-1,4-disulfonamide]	2.01 to 8	–
C[C@H]1COC[C@H](C)N1CC1CCN(c2c(F)cccc2NS(=O)(=O)c2ccc(S(=O)(=O)N(C)C)cc2)CC1 (racemic) [Compound A-763, N4-(2-{4-[(3,5-dimethylmorpholin-4-yl)methyl]piperidin-1-yl}-3-fluorophenyl)-N1,N1-dimethylbenzene-1,4-disulfonamide]	≤ 2	–
C[C@@H]1C[C@@]2(CCN1c1ccccc1NS(=O)(=O)c1ccc(S(=O)(=O)N(C)C)cc1)COC(C)(C)C2 (racemic) [Compound A-799, N1,N1-dimethyl-N4-(2-((5R,7R)-3,3,7-trimethyl-2-oxa-8-azaspiro[4.5]decan-8-yl)phenyl)benzene-1,4-disulfonamide]	≤ 2	–
C[C@H]1CN(CC2CCN(c3c(F)cccc3NS(=O)(=O)c3ccc(S(=O)(=O)N(C)C)cc3)CC2)C[C@H](C)O1 (racemic) [Compound A-843, rel-N1-(2-(4-((2,6-dimethylmorpholino)methyl)piperidin-1-yl)-3-fluorophenyl)-N4,N4-dimethylbenzene-1,4-disulfonamide]	≤ 2	–
C[C@H]1COC[C@H](C)N1CC1CCN(c2c(F)cccc2NS(=O)(=O)c2ccc(S(C)(=O)=O)cc2)CC1 (relative stereo) [Compound A-838, trans-N-(2-(4-((3,5-dimethylmorpholino)methyl)piperidin-1-yl)-3-fluorophenyl)-4-(methylsulfonyl)benzenesulfonamide]	≤ 2	–
C[C@H]1COC[C@H](C)N1C[C@H]1CCN(c2c(F)cccc2NS(=O)(=O)c2ccc(S(=O)(=O)N(C)C)cc2)C1 (relative stereo) [Compound A-896, N4-{2-[(3R)-3-{[3,5-dimethylmorpholin-4-yl]methyl}pyrrolidin-1-yl]-3-fluorophenyl}-N1,N1-dimethylbenzene-1,4-disulfonamide]	≤ 2	–
C[C@@H]1COC[C@@H](C)N1C[C@H]1CCN(c2c(F)cccc2NS(=O)(=O)c2ccc(S(=O)(=O)N(C)C)cc2)C1 (relative stereo) [Compound A-897, N4-{2-[(3R)-3-{[3,5-dimethylmorpholin-4-yl]methyl}pyrrolidin-1-yl]-3-fluorophenyl}-N1,N1-dimethylbenzene-1,4-disulfonamide]	≤ 2	–
CC(c1cccc(F)c1N1CCC(CN2C[C@@H](C)O[C@@H](C)C2)CC1)S(=O)(=O)c1ccc(S(=O)(=O)C(F)F)cc1 (single isomer, unassigned) [Compound A-807, 4-((1-(2-(1-((4-((difluoromethyl)sulfonyl)phenyl)sulfonyl)ethyl)-6-fluorophenyl)piperidin-4-yl)methyl)-2,6-dimethylmorpholine]	≤ 2	–
CC(c1cccc(F)c1N1CCC(CN2C[C@@H](C)O[C@@H](C)C2)CC1)S(=O)(=O)c1ccc(S(=O)(=O)C(F)F)cc1 (single isomer, unassigned) [Compound A-808, 4-((1-(2-(1-((4-((difluoromethyl)sulfonyl)phenyl)sulfonyl)ethyl)-6-fluorophenyl)piperidin-4-yl)methyl)-2,6-dimethylmorpholine]	–	≤ 2
C[C@@H]1CN(CC2CCN(c3c(F)cccc3NS(=O)(=O)c3ccc(S(=N)(=O)N(C)C)cc3)CC2)C[C@H](C)O1 (single isomer, unassigned) [Compound A-810, Rel-N-(2-(4-((2,6-dimethylmorpholino)methyl)piperidin-1-yl)-3-fluorophenyl)-4-(N,N-dimethylsulfamidimidoyl)benzenesulfonamide]	≤ 2	–
C[C@@H]1CN(CC2CCN(c3c(F)cccc3NS(=O)(=O)c3ccc(S(=N)(=O)N(C)C)cc3)CC2)C[C@H](C)O1 (single isomer, unassigned) [Compound A-811, Rel-N-(2-(4-((2,6-dimethylmorpholino)methyl)piperidin-1-yl)-3-fluorophenyl)-4-(N,N-dimethylsulfamidimidoyl)benzenesulfonamide]	–	≤ 2
CC(c1cccc(F)c1N1CCC(CN2C[C@@H](C)O[C@@H](C)C2)CC1)S(=O)(=O)c1ccc2c(c1)CCC2 (single isomer, unassigned) [Compound A-828]	≤ 2	–
C[C@H]1COC[C@H](C)N1CC1CCN(c2c(F)cccc2NS(=O)(=O)c2ccc(S(=N)(=O)N(C)C)cc2)CC1 (single isomer, unassigned) [Compound A-833]	≤ 2	–
C[C@H]1COC[C@H](C)N1CC1CCN(c2c(F)cccc2NS(=O)(=O)c2ccc(S(=N)(=O)N(C)C)cc2)CC1 (single isomer, unassigned) [Compound A-834]	≤ 2	–
CC(c1cccc(C#N)c1N1CCC(CN2C[C@@H](C)O[C@@H](C)C2)CC1)S(=O)(=O)c1ccc(S(=O)(=O)N(C)C)cc1 (single isomer, unassigned) [Compound A-845, 4-((1-(3-cyano-2-(4-((2,6-dimethylmorpholino)methyl)piperidin-1-yl)phenyl)ethyl)sulfonyl)-N,N-dimethylbenzenesulfonamide]	2.01 to 8	–
C[C@@H]1CN(CC2CCN(c3c(F)cccc3NS(=O)(=O)c3ccc(S(C)(=N)=O)cc3)CC2)C[C@H](C)O1 (single isomer, unassigned) [Compound A-846]	–	2.01 to 8
C[C@@H]1CN(CC2CCN(c3c(F)cccc3NS(=O)(=O)c3ccc(S(C)(=N)=O)cc3)CC2)C[C@H](C)O1 (single isomer, unassigned) [Compound A-847]	–	≥ 10
CC(c1cccc(F)c1N1CCC(CN2C[C@H]3C[C@@H](C2)O3)CC1)S(=O)(=O)c1ccc(S(=O)(=O)N(C)C)cc1 (single isomer, unassigned) [Compound A-848]	≤ 2	–
CC(c1cccc(F)c1N1CCC(CN2C[C@H]3C[C@@H](C2)O3)CC1)S(=O)(=O)c1ccc(S(=O)(=O)N(C)C)cc1 (single isomer, unassigned) [Compound A-849]	–	2.01 to 8
CC(c1cccc(C#N)c1N1CCC(CN2C[C@@H](C)O[C@@H](C)C2)CC1)S(=O)(=O)c1ccc(S(=O)(=O)N(C)C)cc1 (single isomer, unassigned) [Compound A-854, 4-((1-(3-cyano-2-(4-((2,6-dimethylmorpholino)methyl)piperidin-1-yl)phenyl)ethyl)sulfonyl)-N,N-dimethylbenzenesulfonamide]	–	≤ 2
CC(C1CCN(c2c(F)cccc2NS(=O)(=O)c2ccc(S(=N)(=O)N(C)C)cc2)CC1)N1C[C@@H](C)O[C@@H](C)C1 (single isomer, unassigned) [Compound A-871A]	–	≤ 2
CC(C1CCN(c2c(F)cccc2NS(=O)(=O)c2ccc(S(=N)(=O)N(C)C)cc2)CC1)N1C[C@@H](C)O[C@@H](C)C1 (single isomer, unassigned) [Compound A-871B]	–	≤ 2
CC(C1CCN(c2c(F)cccc2NS(=O)(=O)c2ccc(S(=N)(=O)N(C)C)cc2)CC1)N1C[C@@H](C)O[C@@H](C)C1 (single isomer, unassigned) [Compound A-871]	≤ 2	–
CC(C1CCN(c2c(F)cccc2NS(=O)(=O)c2ccc(S(=N)(=O)N(C)C)cc2)CC1)N1C[C@@H](C)O[C@@H](C)C1 (single isomer, unassigned) [Compound A-872]	–	≤ 2
